Data: patent US20060189602A1, “Pyridazinone compounds” (Anadys Pharmaceuticals, Inc., priority 2004, published 2006)

Target: HCV NS5B polymerase (Hepatitis C virus genotype 1b, UniProt P26663)
Assay: NS5B Polymerase Inhibition Assay
Format: biochemical
Details: 50 nM enzyme, [α-33P]GTP, oligo (rG13)/poly rC, 75 min at 28° C.
Protocol: NS5B Polymerase Inhibition Assay
Compounds were tested for HCV polymerase inhibition. Assays were performed in a 96-well streptavidin-coated FlashPlate using 50 nM enzyme, 0.5 μCi of [α-^33P]GTP, 0.63 μM GTP, and 250 nM 5′biotinylated oligo (rG13)/poly rC in 20 mM Tris-HCl, pH 7.5, 5 mM MgCl2, 20 mM NaCl, 5 mM dithiothreitol, and 0.1 g/L BSA. The reaction was stopped by aspiration after 75 min at 28° C. and the plate was washed several times. After washing, incorporated radioactivity was counted using a Microbeta scintillation counter.

Chain of HCV NS5B polymerase (P26663 2420-3010): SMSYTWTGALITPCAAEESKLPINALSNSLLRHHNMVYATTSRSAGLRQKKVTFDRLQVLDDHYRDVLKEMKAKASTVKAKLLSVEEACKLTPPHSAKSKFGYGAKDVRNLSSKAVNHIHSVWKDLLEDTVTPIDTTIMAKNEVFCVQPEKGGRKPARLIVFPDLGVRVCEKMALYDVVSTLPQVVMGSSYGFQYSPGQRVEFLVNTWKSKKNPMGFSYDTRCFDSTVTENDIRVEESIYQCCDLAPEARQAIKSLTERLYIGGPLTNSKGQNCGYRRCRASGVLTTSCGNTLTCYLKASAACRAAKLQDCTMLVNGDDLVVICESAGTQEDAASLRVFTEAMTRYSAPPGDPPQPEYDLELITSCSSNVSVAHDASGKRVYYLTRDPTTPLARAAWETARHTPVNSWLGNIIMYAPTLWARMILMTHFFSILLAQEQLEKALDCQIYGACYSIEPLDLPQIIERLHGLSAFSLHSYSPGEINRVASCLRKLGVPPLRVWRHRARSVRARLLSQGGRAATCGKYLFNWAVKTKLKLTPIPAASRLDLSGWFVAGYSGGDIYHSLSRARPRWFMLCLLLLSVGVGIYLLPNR

In the case of `CCCCc1nn(CCC(C)C)c(=O)c(C2=Nc3ccc(O)cc3S(=O)(=O)N2)c1O` [Compound 36, 6-Butyl-5-hydroxy-4-(7-hydroxy-1,1-dioxo-1,2-dihydro-1λ^6-ben-zo[1,2,4]thiadiazin-3-yl)-2-(3-methyl-butyl)-2H-pyridazin-3-one], the IC50 is reported as < 10 µM.

In the case of `CCCCn1nc(CCC(C)C)c(O)c(C2=Nc3ccc(O)cc3S(=O)(=O)N2)c1=O` [Compound 38, 2-Butyl-5-hydroxy-4-(7-hydroxy-1,1-dioxo-1,2-dihydro-1λ^6-ben-zo[1,2,4]thiadiazin-3-yl)-6-(3-methyl-butyl)-2H-pyridazin-3-one], the IC50 is reported as < 10 µM.

For `CCCCn1nc(CCC(C)C)c(O)c(C2=Nc3ccc(OCC(N)=O)cc3S(=O)(=O)N2)c1=O` [Compound 39, 2-{3-[2-Butyl-5-hydroxy-6-(3-methyl-butyl)-3-oxo-2,3-di-hydro-pyridazin-4-yl]-1,1-dioxo-1,2-dihydro-1λ^6-ben-zo[1,2,4]thiadiazin-7-yloxy}-acetamide], the IC50 was < 10 µM.

With `CCCCc1nn(CCCC)c(=O)c(C2=Nc3ccc(OC)cc3S(=O)(=O)N2)c1O` [Compound 40, 2,6-Dibutyl-5-hydroxy-4-(7-methoxy-1,1-dioxo-1,2-dihydro-1λ^6-ben-zo[1,2,4]thiadiazin-3-yl)-2H-pyridazin-3-one] the IC50 was 10 to 50 µM.

Molecule `CC(C)c1nn(Cc2ccccc2)c(=O)c(C2=Nc3ccccc3S(=O)(=O)N2)c1O` [Compound 41, 2-Benzyl-4-(1,1-dioxo-1,2-dihydro-1λ^6-ben-zo[1,2,4]thiadiazin-3-yl)-5-hydroxy-6-isopropyl-2H-py-ridazin-3-one] has an IC50 of 10 to 50 µM.

In the case of `CCCc1nn(CCC(C)C)c(=O)c(C2=Nc3ccc(OC)cc3S(=O)(=O)N2)c1O` [Compound 42, 5-Hydroxy-4-(7-methoxy-1,1-dioxo-1,2-dihydro-1λ^6-ben-zo[1,2,4]thiadiazin-3-yl)-2-(3-methyl-butyl)-6-propyl-2H-py-ridazin-3-one], the IC50 is reported as < 10 µM.

For `CCCCc1nn(CCCC)c(=O)c(C2=Nc3ccc(O)cc3S(=O)(=O)N2)c1O` [Compound 45, 2,6-Dibutyl-5-hydroxy-4-(7-hydroxy-1,1-dioxo-1,2-dihydro-1λ^6-ben-zo[1,2,4]thiadiazin-3-yl)-2H-pyridazin-3-one], the IC50 was < 10 µM.

In the case of `CCCc1nn(CCC(C)C)c(=O)c(C2=Nc3ccc(O)cc3S(=O)(=O)N2)c1O` [Compound 46, 5-Hydroxy-4-(7-hydroxy-1,1-dioxo-1,2-dihydro-1λ^6-ben-zo[1,2,4]thiadiazin-3-yl)-2-(3-methyl-butyl)-6-propyl-2H-py-ridazin-3-one], the IC50 is reported as < 10 µM.

`CCCCc1nn(CCCC)c(=O)c(C2=Nc3ccc(OCC(N)=O)cc3S(=O)(=O)N2)c1O` [Compound 47, 2-[3-(2,6-Dibutyl-5-hydroxy-3-oxo-2,3-dihydro-pyridazin-4-yl)-1,1-di-oxo-1,2-dihydro-1λ^6-benzo[1,2,4]thiadiazin-7-yl-oxy]-acetamide] was tested, and the IC50 was < 10 µM.

With `CCCc1nn(CCC(C)C)c(=O)c(C2=NS(=O)(=O)c3cc(OCC(N)=O)ccc3N2)c1O` [Compound 49, 2-{3-[5-Hydroxy-2-(3-methyl-butyl)-3-oxo-6-propyl-2,3-di-hydro-pyridazin-4-yl]-1,1-dioxo-1,2-dihydro-1λ^6-ben-zo[1,2,4]thiadiazin-7-yloxy}-acetamide] the IC50 was < 10 µM.

Molecule `CC(C)CCn1nc(-c2cccs2)c(O)c(C2=NS(=O)(=O)c3sc(Cl)cc3N2)c1=O` [Compound 50, 4-(2-Chloro-7,7-dioxo-4,7-dihydro-1,7λ^6-dithia-4,6-diaza-inden-5-yl)-5-hydroxy-2-(3-methyl-butyl)-6-thiophen-2-yl-2H-py-ridazin-3-one] has an IC50 of 10 to 50 µM.

With `CC(C)CCc1nn(CCC(C)C)c(=O)c(C2=NS(=O)(=O)c3cc(OCC(N)=O)ccc3N2)c1O` [Compound 51, 2-{3-[5-Hydroxy-2,6-bis-(3-methyl-butyl)-3-oxo-2,3-dihydro-py-ridazin-4-yl]-1,1-dioxo-1,2-dihydro-1λ^6-ben-zo[1,2,4]thiadiazin-7-yloxy}-acetamide] the IC50 was < 10 µM.

`CC(C)c1nn(CCC(C)(C)C)c(=O)c(C2=Nc3ccccc3S(=O)(=O)N2)c1O` [Compound 53, 2-(3,3-Dimethyl-butyl)-4-(1,1-dioxo-1,2-dihydro-1λ^6-ben-zo[1,2,4]thiadiazin-3-yl)-5-hydroxy-6-isopropyl-2H-py-ridazin-3-one] was tested, and the IC50 was < 10 µM.

For `COc1ccc2c(c1)S(=O)(=O)NC(c1c(O)c(-c3nccs3)nn(CCC(C)C)c1=O)=N2` [Compound 54, 5-Hydroxy-4-(7-methoxy-1,1-dioxo-1,2-dihydro-1λ^6-ben-zo[1,2,4]thiadiazin-3-yl)-2-(3-methyl-butyl)-6-thiazol-2-yl-2H-py-ridazin-3-one], the IC50 was < 10 µM.

`COc1ccc2c(c1)S(=O)(=O)NC(c1c(O)c(-c3cccs3)nn(CCC(C)(C)C)c1=O)=N2` [Compound 56, 2-(3,3-Dimethyl-butyl)-5-hydroxy-4-(7-methoxy-1,1-dioxo-1,2-di-hydro-1λ^6-benzo[1,2,4]thiadiazin-3-yl)-6-thiophen-2-yl-2H-py-ridazin-3-one] was tested, and the IC50 was < 10 µM.

For `CC(C)c1nn(CCC2CC2)c(=O)c(C2=Nc3ccccc3S(=O)(=O)N2)c1O` [Compound 57, 2-(2-Cyclopropyl-ethyl)-4-(1,1-dioxo-1,2-dihydro-1λ^6-ben-zo[1,2,4]thiadiazin-3-yl)-5-hydroxy-6-isopropyl-2H-py-ridazin-3-one], the IC50 was < 10 µM.

`COc1ccc2c(c1)S(=O)(=O)NC(c1c(O)c(CCC#N)nn(CCC(C)(C)C)c1=O)=N2` [Compound 58, 3-[1-(3,3-Dimethyl-butyl)-4-hydroxy-5-(7-methoxy-1,1-dioxo-1,2-di-hydro-1λ^6-benzo[1,2,4]thiadiazin-3-yl)-6-oxo-1,6-di-hydro-pyridazin-3-yl]-propionitrile] gave an IC50 of 10 to 50 µM.

In the case of `Cc1ccc(-c2nn(Cc3ccccc3)c(=O)c(C3=Nc4ccccc4S(=O)(=O)N3)c2O)s1` [Compound 59, 2-Benzyl-4-(1,1-dioxo-1,2-dihydro-1λ^6-ben-zo[1,2,4]thiadiazin-3-yl)-5-hydroxy-6-(5-methyl-thiophen-2-yl)-2H-py-ridazin-3-one], the IC50 is reported as < 10 µM.

`COc1ccc2c(c1)S(=O)(=O)NC(c1c(O)c(-c3sccc3C)nn(CCC(C)C)c1=O)=N2` [Compound 61, 5-Hydroxy-4-(7-methoxy-1,1-dioxo-1,2-dihydro-1λ^6-ben-zo[1,2,4]thiadiazin-3-yl)-2-(3-methyl-butyl)-6-(3-methyl-thio-phen-2-yl)-2H-pyridazin-3-one] was tested, and the IC50 was < 10 µM.

For `CC(C)c1nn(CC2CCC2)c(=O)c(C2=Nc3ccccc3S(=O)(=O)N2)c1O` [Compound 63, 2-Cyclobutylmethyl-4-(1,1-dioxo-1,2-dihydro-1λ^6-ben-zo[1,2,4]thiadiazin-3-yl)-5-hydroxy-6-isopropyl-2H-py-ridazin-3-one], the IC50 was 10 to 50 µM.

In the case of `Cc1ccc(-c2nn(CCC(C)(C)C)c(=O)c(C3=NS(=O)(=O)c4cc(OCC(N)=O)ccc4N3)c2O)s1` [Compound 64, 2-{3-[2-(3,3-Dimethyl-butyl)-5-hydroxy-6-(5-methyl-thiophen-2-yl)-3-ox-o-2,3-dihydro-pyridazin-4-yl]-1,1-dioxo-1,2-di-hydro-1λ^6-benzo[1,2,4]thiadiazin-7-yloxy}-acetamide], the IC50 is reported as < 10 µM.

With `Cc1ccsc1-c1nn(CCC(C)C)c(=O)c(C2=NS(=O)(=O)c3cc(OCC(N)=O)ccc3N2)c1O` [Compound 65, 2-{3-[5-Hydroxy-2-(3-methyl-butyl)-6-(3-methyl-thiophen-2-yl)-3-ox-o-2,3-dihydro-pyridazin-4-yl]-1,1-dioxo-1,2-dihydro-1λ^6-ben-zo[1,2,4]thiadiazin-7-yloxy}-acetamide] the IC50 was < 10 µM.

Work on `COc1ccc2c(c1)S(=O)(=O)NC(c1c(O)c(C(C)(C)C)nn(CCC(C)(C)C)c1=O)=N2` [Compound 66, 6-tert-Butyl-2-(3,3-dimethyl-butyl)-5-hydroxy-4-(7-methoxy-1,1-di-oxo-1,2-dihydro-1λ^6-benzo[1,2,4]thiadiazin-3-yl)-2H-py-ridazin-3-one] yielded an IC50 of 10 to 50 µM.

`CC(C)(C)CCn1nc(C(C)(C)C)c(O)c(C2=Nc3ccc(O)cc3S(=O)(=O)N2)c1=O` [Compound 67, 6-tert-Butyl-2-(3,3-dimethyl-butyl)-5-hydroxy-4-(7-hydroxy-1,1-di-oxo-1,2-dihydro-1λ^6-benzo[1,2,4]thiadiazin-3-yl)-2H-py-ridazin-3-one] was tested, and the IC50 was < 10 µM.
